From the supplement of paper PMC11451515

Key:
Settings in all cases: 48 h
SEM cells [1] = assay: cell viability relative to DMSO control; higher = less cytotoxic
Summary of the method: (§1)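 Viability values are per-plate percentages of DMSO wells, with background from cell-free wells. Library compounds in DMSO were pin-dosed, in an 11-point threefold series from 47 μM to 0.79 nM, onto NOMO1 or SEM (500 cells/well) or P12-Ichikawa (1000 cells/well) leukemia cells in 1536-well plates (5 μl). Those cells had been adapted for at least four passages in each medium, and CellTiter-Glo One luminescence was read after 48 h at 37°C.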

NOMO1 [2] = assay: AUC of viability dose-response curve (% viability x log10 dose units); higher = less sensitive
Summary of the method: (§2)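 Library compounds in DMSO were applied for 48 h at 37°C at 11 threefold doses (47 μM to 0.79 nM) to medium-adapted leukemia cells in 1536-well plates holding 500 or 1000 cells/well. Luminescence from CellTiter-Glo One was normalised plate by plate against DMSO and cell-free wells. Area under the curve came from trapezoidal integration of a log-logistic fit, after scaling curves that rose above full viability and discarding those that failed quality control. The fit had four parameters and used log10 doses.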

P12-Ichikawa [3] = assay: as above
Summary of the method: as §2

SEM cells [4] = assay: as above
Summary of the method: as §2

NOMO1 [5] = assay: cell viability relative to DMSO control; higher = less cytotoxic
Summary of the method: as §1

P12-Ichikawa [6] = assay: as above
Summary of the method: as §1

CC(=O)OCC(=O)[C@@]1(O)CC[C@H]2[C@@H]3CCC/4=C/C(=O)CC[C@]4(C)[C@H]3C(=O)C[C@]12C
SEM cells [1], HPLM + 10% dialyzed FBS
Settings | cell viability [%]
0.000781 µM | 106
0.00234 µM | 109
0.00702 µM | 112
0.0211 µM | 101
0.0632 µM | 107
0.19 µM | 117
0.569 µM | 84.5
1.71 µM | 51.8
5.12 µM | 112
15.4 µM | 111
46.1 µM | 118

AUC of viability dose-response curve
Settings | NOMO1 [2] | P12-Ichikawa [3] | SEM cells [4]
HPLM + 10% dialyzed FBS | 464 | 460 | 466
RPMI 5 mM glucose + 10% FBS | 476 | 470 | 466
RPMI 5 mM glucose + 10% dialyzed FBS | 459 | 430 | 445

CCn1c(=O)c2c(nc(/C=C/c3ccc(OC)c(OC)c3)n2C)n(CC)c1=O
AUC of viability dose-response curve
Settings | NOMO1 [2] | P12-Ichikawa [3] | SEM cells [4]
HPLM + 10% dialyzed FBS | 425 | 467 | 470
RPMI 5 mM glucose + 10% FBS | 424 | 451 | 463
RPMI 5 mM glucose + 10% dialyzed FBS | 436 | 464 | 472

c1ccc(CNc2nc(NCc3ccccc3)c3ccccc3n2)cc1
cell viability [%], HPLM + 10% dialyzed FBS
Settings | NOMO1 [5] | SEM cells [1]
0.000781 µM | 92.7 | 104
0.00234 µM | 114 | 116
0.00702 µM | 144 | 117
0.0211 µM | 121 | 125
0.0632 µM | 138 | 130
0.19 µM | 134 | 132
0.569 µM | 148 | 136
1.71 µM | 158 | 127
5.12 µM | 132 | 136
15.4 µM | 118 | 133
46.1 µM | 5.97 | 32.5

AUC of viability dose-response curve
Settings | NOMO1 [2] | P12-Ichikawa [3] | SEM cells [4]
HPLM + 10% dialyzed FBS | 450 | 473 | 440
RPMI 5 mM glucose + 10% FBS | 466 | 465 | 462
RPMI 5 mM glucose + 10% dialyzed FBS | 463 | 465 | 470

Cc1cc(NC(=O)Nc2ccc(N(C)C)cc2)c2cc(F)cc(F)c2n1
AUC of viability dose-response curve
Settings | NOMO1 [2] | P12-Ichikawa [3] | SEM cells [4]
HPLM + 10% dialyzed FBS | 457 | 475 | 465
RPMI 5 mM glucose + 10% FBS | 466 | 461 | 468
RPMI 5 mM glucose + 10% dialyzed FBS | 440 | 454 | 448

O=C1N(c2ccccc2)c2ccccc2C1(Cc1ccncc1)Cc1ccncc1
SEM cells [1], RPMI 5 mM glucose + 10% FBS
Settings | cell viability [%]
0.000781 µM | 84.9
0.00234 µM | 115
0.00702 µM | 133
0.0211 µM | 148
0.0632 µM | 129
0.19 µM | 43.9
0.569 µM | 137
1.71 µM | 94.4
5.12 µM | 88.3
15.4 µM | 108
46.1 µM | 152

AUC of viability dose-response curve
Settings | HPLM + 10% dialyzed FBS | RPMI 5 mM glucose + 10% FBS | RPMI 5 mM glucose + 10% dialyzed FBS
NOMO1 [2] | 462 | 473 | 465
P12-Ichikawa [3] | 446 | 437 | 424

N#C/C(=C(/N)Sc1ccc(N)cc1)c1ccccc1C(F)(F)F
cell viability [%], HPLM + 10% dialyzed FBS
Settings | P12-Ichikawa [6] | SEM cells [1]
0.000781 µM | 123 | 91.1
0.00234 µM | 121 | 141
0.00702 µM | 125 | 124
0.0211 µM | 125 | 129
0.0632 µM | 133 | 129
0.19 µM | 118 | 124
0.569 µM | 120 | 126
1.71 µM | 103 | 110
5.12 µM | 94.4 | 85.4
15.4 µM | 94.1 | 82.3
46.1 µM | 83.9 | 64.6

AUC of viability dose-response curve
Settings | NOMO1 [2] | P12-Ichikawa [3] | SEM cells [4]
HPLM + 10% dialyzed FBS | 354 | 433 | 428
RPMI 5 mM glucose + 10% FBS | 386 | 417 | 424
RPMI 5 mM glucose + 10% dialyzed FBS | 366 | 436 | 404

C/C1=C2/[N]3[Co+]456([OH])<-[N]7=C1[C@@H](CCC(N)=O)C(C)(C)/C7=C/C1=[N]->4C(=C(/C)C4=[N]->5[C@@](C)([C@H]3[C@H](CC(N)=O)[C@@]2(C)CCC(=O)NC[C@@H](C)OP(=O)([O-])O[C@H]2[C@@H](O)[C@@H](n3c[n]->6c5cc(C)c(C)cc53)O[C@@H]2CO)[C@@](C)(CC(N)=O)[C@@H]4CCC(N)=O)/[C@@](C)(CC(N)=O)[C@@H]1CCC(N)=O
cell viability [%]
Settings | NOMO1 [5] | P12-Ichikawa [6] | SEM cells [1]
HPLM + 10% dialyzed FBS, 0.000781 µM | 94.9 | 103 | 93.9
HPLM + 10% dialyzed FBS, 0.00234 µM | 110 | 97.2 | 90.7
HPLM + 10% dialyzed FBS, 0.00702 µM | 102 | 95.9 | 94.6
HPLM + 10% dialyzed FBS, 0.0211 µM | 103 | 99.2 | 98.2
HPLM + 10% dialyzed FBS, 0.0632 µM | 113 | 99.9 | 98.3
HPLM + 10% dialyzed FBS, 0.19 µM | 105 | 97.8 | 94.2
HPLM + 10% dialyzed FBS, 0.569 µM | 100 | 92.8 | 94.6
HPLM + 10% dialyzed FBS, 1.71 µM | 77.2 | 93.2 | 92.8
HPLM + 10% dialyzed FBS, 5.12 µM | 87.9 | 76.8 | 94.5
HPLM + 10% dialyzed FBS, 15.4 µM | 80.4 | 77.7 | 73.8
HPLM + 10% dialyzed FBS, 46.1 µM | 70.6 | 71.3 | 60.1
RPMI 5 mM glucose + 10% FBS, 0.000781 µM | 95.1 | 97.5 | 112
RPMI 5 mM glucose + 10% FBS, 0.00234 µM | 95 | 88.7 | 116
RPMI 5 mM glucose + 10% FBS, 0.00702 µM | 87.9 | 97.9 | 104
RPMI 5 mM glucose + 10% FBS, 0.0211 µM | 95.4 | 98.1 | 82.5
RPMI 5 mM glucose + 10% FBS, 0.0632 µM | 90.5 | 95.7 | 113
RPMI 5 mM glucose + 10% FBS, 0.19 µM | 90.3 | 88.3 | 95.9
RPMI 5 mM glucose + 10% FBS, 0.569 µM | 97.3 | 98.8 | 99.3
RPMI 5 mM glucose + 10% FBS, 1.71 µM | 82.2 | 93.4 | 97.3
RPMI 5 mM glucose + 10% FBS, 5.12 µM | 81.4 | 85.8 | 77.1
RPMI 5 mM glucose + 10% FBS, 15.4 µM | 89 | 85.4 | 91.6
RPMI 5 mM glucose + 10% FBS, 46.1 µM | 75.5 | 69.8 | 79.9
RPMI 5 mM glucose + 10% dialyzed FBS, 0.000781 µM | 95.6 | 82.3 | 96.4
RPMI 5 mM glucose + 10% dialyzed FBS, 0.00234 µM | 95.8 | 85.2 | 96.6
RPMI 5 mM glucose + 10% dialyzed FBS, 0.00702 µM | 101 | 86.5 | 109
RPMI 5 mM glucose + 10% dialyzed FBS, 0.0211 µM | 94.6 | 77.3 | 100
RPMI 5 mM glucose + 10% dialyzed FBS, 0.0632 µM | 90.7 | 83 | 110
RPMI 5 mM glucose + 10% dialyzed FBS, 0.19 µM | 97.7 | 79.9 | 95.6
RPMI 5 mM glucose + 10% dialyzed FBS, 0.569 µM | 97.5 | 75.7 | 101
RPMI 5 mM glucose + 10% dialyzed FBS, 1.71 µM | 91.8 | 76.7 | 101
RPMI 5 mM glucose + 10% dialyzed FBS, 5.12 µM | 86.1 | 73.9 | 103
RPMI 5 mM glucose + 10% dialyzed FBS, 15.4 µM | 89.9 | 76.9 | 80.4
RPMI 5 mM glucose + 10% dialyzed FBS, 46.1 µM | 72.7 | 61 | 71

AUC of viability dose-response curve
Settings | HPLM + 10% dialyzed FBS | RPMI 5 mM glucose + 10% FBS | RPMI 5 mM glucose + 10% dialyzed FBS
NOMO1 [2] | 434 | 426 | 443
SEM cells [4] | 433 | 414 | 460

COc1cc2nc(N3CCN(C(=O)C4COc5ccccc5O4)CC3)nc(N)c2cc1OC (stereo not drawn)
cell viability [%], HPLM + 10% dialyzed FBS
Settings | P12-Ichikawa [6] | SEM cells [1]
0.000781 µM | 122 | 123
0.00234 µM | 125 | 125
0.00702 µM | 137 | 115
0.0211 µM | 127 | 126
0.0632 µM | 129 | 122
0.19 µM | 132 | 128
0.569 µM | 132 | 113
1.71 µM | 131 | 132
5.12 µM | 115 | 120
15.4 µM | 112 | 119
46.1 µM | 82.3 | 91.4

AUC of viability dose-response curve
Settings | NOMO1 [2] | P12-Ichikawa [3] | SEM cells [4]
HPLM + 10% dialyzed FBS | 439 | 457 | 469
RPMI 5 mM glucose + 10% FBS | 452 | 461 | 450
RPMI 5 mM glucose + 10% dialyzed FBS | 456 | 467 | 447
